Source: US20030120049A1, “Non-selective cation channel” (priority 2000, published 2003)

Legend:
OTRPC4 [1] = target: T1, OTRPC4 (Mus musculus, UniProt Q9EPK8); test: FURA-2 single cell measurement of intracellular calcium in HEK293 cells transiently expressing OTRPC4-GFP; assay type: cell-based, murine; conditions: for effect on cells which expressed OTRPC4: 10 μM
T1 construct: expressed in transfected cells; host or cells: HEK293 (transient, FuGENE 6)
From the text: The cDNA of OTRPC4 was cloned into a eukaryotic expression plasmid containing, at the C-terminal end, a green fluorescent protein (GFP) fusion section (pEGFP-N1). This plasmid was used for the subsequent expression studies. It can be inferred from the nucleotide sequence that the OTRPC4 protein may consist of 871 amino acids, for example, and contains 6 possible transmembranal segments with a sequence between segments 5 and 6 which possibly codes for a pore region of a channel (FIG. 1a). After transient transfection (which was carried out using the FuGENE 6 transfection reagent) of the expression plasmid coding for the OTRPC4-GFP fusion protein in HEK293 cells, dots of fluorescence could be detected in the plasma membrane 24-36 hours later. […] For the following experiments, HEK293 cells were transiently transfected with the above-mentioned expression plasmid containing OTRPC4 and compared, after 24-36 hours, with untransfected control cells.
The influence of extracellular osmolarity on the channel activity of OTRPC4 was investigated. After reducing the osmolarity of the extracellular solution, there was a long, transient and reversible increase in the [Ca^2+]i in the OTRPC4 expressing cells but not in the control cells (FIG. 5). Increasing the osmolarity of the extracellular solution, on the other hand, reduced the [Ca^2+]i (cf. the small diagram in FIG. 4). A significant change in the [Ca^2+]i was observed even when the extracellular solution was changed by 30 mosmol/l. The changes in [Ca^2+]i triggered by changing the osmolarity of the extracellular solution occurred rapidly and reached a peak after about 30 seconds, but varied from cell to cell (see FIG. 4). After returning to the normoosmolar solution, [Ca^2+]i rapidly returned to its base value. In order to distinguish between an influx of calcium from the extracellular medium and a release of calcium from intracellular calcium stores, calcium was replaced by EGTA in the extracellular medium while the cells were exposed to a hypotonic medium. Under these conditions, the FURA-2 signal returned to the base value (see FIG. 4).
The members of the STRPC subfamily of the TRPC channels are activated by signals produced by the activation of the phospholipase C-β (PCL-β) (6-15).
The addition of capsaicin (10 μM) and resiniferatoxin (10 μM) as well as a brief increase in the temperature to 65° C. had no effect on cells which expressed OTRPC4.

OTRPC4 [2] = target: T1, OTRPC4; test: FURA-2 measurement of intracellular Ca2+ with luminiscence spectrometer in OTRPC4 transfected HEK293 cells; assay type: cell-based, murine; conditions: 100 μM; osmolarity lowered from 320 mosmol/l to 220 mosmol/l
Protocol: For testing the function of OTRPC4 transfected HEK293 cells with a further method, intracellular Ca^2+ concentration was measured with FURA-2. The experiments were conducted with luminiscence spectrometer (LS 50 B, Perkin Elmer).
For determining the extent of calcium influx into the cells, maximal intracellular Ca^2+ was induced by lonomycin. This [Ca^2+]i could be reverted to its original value by EGTA. Influx of extracellular calcium via OTRPC4 was demostrated by showing change of the intracellular Ca^2+ concentration by lowering osmolarity by 100 mosmol/l (from 320 mosmol/l to 220 mosmol/l). The hypotonic solution led to an increase in [Ca^2+]i which could be quenched by EGTA. Half of the [Ca^2+] increasing effect of hypotonic solution could be blocked by addition of LOE908 (Embaco A, Romanin C, Birke F W, Kukovetz W R, Groschner K: Inhibition of a store-operated Ca2+ entry pathway in human endothelial cells by the isoquinoline derivative LOE 908. British Journal of Pharmacology (1996) 119 702-706) (100 μM) (FIG. 10).

[3] = system: chloride channels activated by a change in volume; test: Perforated patch measurement of currents triggered by hypotonic extracellular solution in control cells; assay type: cell-based; conditions: 50 μM
Protocol: (§1) Because of the rapid “run-down” of the ion fluxes, the other experiments were carried out using the so-called perforated patch method. Measured in standard extracellular solution, the current-voltage curve, measured by applying voltage ramps, show an outwardly rectifying form with a reverse potential of about 0 mV (FIG. 6). When the Na^+- and Ca^2+-ions were removed from the extracellular solution, the inward flux disappeared and the reverse potential moved into the negative area. The average ion fluxes at −100 and +100 mV measured with the aid of ramp protocols were −12.8±1.1 and +32.2±2.7 pA/pF, respectively (n=17, Cm=9.6±5.5 pF).
(§2) Replacing the extracellular standard solution with a solution which contained 100 mM NaCl and 100 mM mannitol (osmolarity: 320 mosmol/l) shifted Er to a more negative potential (−11.2±1.6 mV, n=14), as might be expected from a current carried by cations when the extracellular sodium concentration is reduced (see FIG. 6). Moreover, the inwardly and outwardly directed current components were reduced (−7.0±0.8 and 22.7±2.7 pA/pF at −100 and 100 mV, respectively) (see FIG. 6). The use of a hypoosmolar solution (215 mosmol/l) led, after a delay of a few seconds (about 18 seconds on average) to an increase in both the inwardly and outwardly directed currents (FIG. 7). This increase reached its maximum after 50 seconds, on average. […]

OTRPC4 [4] = target: T1, OTRPC4; test: Perforated patch measurement of cation currents triggered by hypotonic solution in OTRPC4-expressing cells; assay type: cell-based, murine; conditions: 50 μM
Protocol: as §1, §2

T1 sequence (Q9EPK8 whole entry): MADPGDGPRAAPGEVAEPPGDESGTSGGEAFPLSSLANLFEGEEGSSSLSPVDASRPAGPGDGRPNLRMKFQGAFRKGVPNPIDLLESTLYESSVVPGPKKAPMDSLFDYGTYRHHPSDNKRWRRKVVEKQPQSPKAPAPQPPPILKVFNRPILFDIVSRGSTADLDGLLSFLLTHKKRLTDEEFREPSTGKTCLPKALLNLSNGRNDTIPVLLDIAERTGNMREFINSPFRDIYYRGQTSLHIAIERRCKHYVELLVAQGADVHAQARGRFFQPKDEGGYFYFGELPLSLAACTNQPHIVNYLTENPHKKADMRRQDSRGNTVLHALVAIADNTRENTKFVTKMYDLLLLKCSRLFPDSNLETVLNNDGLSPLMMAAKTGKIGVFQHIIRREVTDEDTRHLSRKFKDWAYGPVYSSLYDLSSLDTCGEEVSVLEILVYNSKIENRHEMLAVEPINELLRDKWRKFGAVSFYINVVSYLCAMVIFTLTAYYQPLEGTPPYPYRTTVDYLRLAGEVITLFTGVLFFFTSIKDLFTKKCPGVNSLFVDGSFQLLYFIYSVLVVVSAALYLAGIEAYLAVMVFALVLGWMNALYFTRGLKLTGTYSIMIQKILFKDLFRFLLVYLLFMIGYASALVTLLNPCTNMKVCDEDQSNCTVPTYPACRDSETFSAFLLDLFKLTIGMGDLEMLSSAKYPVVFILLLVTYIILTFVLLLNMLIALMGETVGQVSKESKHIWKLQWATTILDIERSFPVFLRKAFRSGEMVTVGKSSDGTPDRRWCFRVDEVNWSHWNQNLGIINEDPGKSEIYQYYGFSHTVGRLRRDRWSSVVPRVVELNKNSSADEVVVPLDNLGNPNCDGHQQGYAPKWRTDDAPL

C/C=C(/C)C(=O)O[C@H]1C(C)=C2[C@H]([C@@H]1OC(=O)CCCCCCC)[C@@](C)(OC(C)=O)C[C@H](OC(=O)CCC)[C@@]1(O)[C@H]2OC(=O)[C@@]1(C)O [thapsigargin]
amplitude of the FURA-2 signal triggered by the hypotonic medium after emptying the intracellular stores (OTRPC4 [1]; 5 μM, added previously, OTRPC4-expressing cells): did not alter the amplitude

C=C(C)[C@]12C[C@@H](C)[C@@]34O[C@](Cc5ccccc5)(O[C@@H]1[C@@H]3C=C(COC(=O)Cc1ccc(O)c(OC)c1)C[C@]1(O)C(=O)C(C)=C[C@@H]41)O2 [resiniferatoxin]
effect on cells which expressed OTRPC4 (OTRPC4 [1]): no effect

[Cl][La]([Cl])[Cl] [LaCl3]
inhibition of the influx of calcium into OTRPC4-expression cells triggered by hypoosmolarity (OTRPC4 [1]; 100 μM, HEK293 cells expressing OTRPC4): about 50%

[Cl][Gd]([Cl])[Cl] [GdCl3]
effect on the influx of calcium into OTRPC4-expression cells triggered by hypoosmolarity (OTRPC4 [1]; 1 mM, HEK293 cells expressing OTRPC4): no effect

COc1cc2c(cc1OC)C(C(C(=O)N(CCc1ccc(OC)c(OC)c1OC)CCc1ccc(OC)c(OC)c1OC)c1ccccc1)=NCC2 (centres unmarked) [LOE908]
block of the [Ca2+] increasing effect of hypotonic solution (OTRPC4 [2]): Half

COc1cc(CNC(=O)CCCC/C=C/C(C)C)ccc1O [capsaicin]
effect on cells which expressed OTRPC4 (OTRPC4 [1]): no effect

O=C(O)c1cc([N+](=O)[O-])ccc1NCCCc1ccccc1 [NPPB]
activation of currents triggered by hypotonic extracellular solution in control cells [3]: inhibited completely | cation currents in OTRPC4-expressing cells triggered by hypotonic solution (OTRPC4 [4]): unaffected
